PMC4608580, “Synthesis and Evaluation of Biological Activity of Antimicrobial – Pro-Proliferative Peptide Conjugates” (PLoS ONE, 2015)

Columns and labels:
[1] = test system: Candida albicans (CCM 8186); type: cell-based; details: broth microdilution, Mueller-Hinton broth + 2% glucose, about 2.5 x 10^3 CFU/mL, 37°C, 24 h, absorbance 590 nm, peptide 2 to 250 μg/mL, at least triplicate
Source text: (§1) Escherichia coli (PCM 2057), Staphylococcus aureus (PCM 2054), Staphylococcus epidermidis (PCM 2118), Pseudomonas aeruginosa (PCM 499) were obtained from Polish Collection of Microorganisms. Fungi strains Candida albicans (CCM 8186), Candida glabrata (CCM 8270), Candida parapsilosis (CCM 8260), Candida krusei (CCM 8271), Candida tropicalis (CCM 8264) were acquired from Czech Collection of Microorganisms.
(§2) Luria-Bertani broth (LB) and Sabouraud Dextrose broth (SB) (Biocorp, Poland) were used for cultivation of bacteria and fungi strains, respectively. Antimicrobial activity of peptides was analyzed through determination of MIC (minimal inhibitory concentration) parameter according to the standard microdilution technique performed on 96-well plates. Mueller-Hinton broth (MHB) was used as the working medium for all bacterial strains, while in case of fungi it was additionally supplemented with 2% glucose.
(§3) Briefly, inoculum was prepared from freshly grown cultures of microorganisms being at their exponential phase of growth. Each well of 96-well plates containing 100 μL of serially diluted peptides in PBS (phosphate buffer saline) at concentration ranging from 2 to 250 μg/mL were inoculated with 100 μL of approximately 10^5 CFU/mL of bacterial suspension or about 2.5 x 10^3 CFU/mL of fungi suspended in a double concentrated Mueller-Hinton broth (supplemented with 2% glucose for Candida spps.). Then plates were incubated overnight at 37°C and absorbance was read at 590 nm after 24 h. Cultures without peptide were treated as positive control, while uninoculated Mueller-Hinton broth was defined as negative control. All measurements were run at least in triplicate.
(§4) All peptides were screened against the wide range of microorganisms, including Gram-negative, Gram-positive bacteria and fungi from Candida species (Table 2). Broth microdilution method for MIC determination was used as a standard procedure. All assays were performed on liquid Mueller-Hinton broth, which was additionally supplemented with 2% glucose when fungicidal activity towards Candida spps. was analyzed.

[2] = test system: Candida tropicalis (CCM 8264); type: cell-based; details: broth microdilution, Mueller-Hinton broth + 2% glucose, about 2.5 x 10^3 CFU/mL, 37°C, 24 h, absorbance 590 nm, at least triplicate
Source text: as §1, §2, §3, §4

[3] = test system: Pseudomonas aeruginosa (PCM 499); type: cell-based; details: broth microdilution, Mueller-Hinton broth, approximately 10^5 CFU/mL, 37°C, 24 h, absorbance 590 nm, at least triplicate
Source text: as §1, §2, §3, §4

[4] = test system: Escherichia coli (PCM 2057); type: cell-based; details: broth microdilution, Mueller-Hinton broth, approximately 10^5 CFU/mL, 37°C, 24 h, absorbance 590 nm, at least triplicate
Source text: as §1, §2, §3, §4

[5] = test system: Candida glabrata (CCM 8270); type: cell-based; details: broth microdilution, Mueller-Hinton broth + 2% glucose, about 2.5 x 10^3 CFU/mL, 37°C, 24 h, absorbance 590 nm, at least triplicate
Source text: as §1, §2, §3, §4

[6] = test system: Candida parapsilosis (CCM 8260); type: cell-based; details: broth microdilution, Mueller-Hinton broth + 2% glucose, about 2.5 x 10^3 CFU/mL, 37°C, 24 h, absorbance 590 nm, at least triplicate
Source text: as §1, §2, §3, §4

[7] = test system: Staphylococcus epidermidis (PCM 2118); type: cell-based; details: broth microdilution, Mueller-Hinton broth, approximately 10^5 CFU/mL, 37°C, 24 h, absorbance 590 nm, at least triplicate
Source text: as §1, §2, §3, §4

[8] = test system: Staphylococcus aureus (PCM 2054); type: cell-based; details: broth microdilution, Mueller-Hinton broth, approximately 10^5 CFU/mL, 37°C, 24 h, absorbance 590 nm, at least triplicate
Source text: as §1, §2, §3, §4

[9] = test system: Candida krusei (CCM 8271); type: cell-based; details: broth microdilution, Mueller-Hinton broth + 2% glucose, about 2.5 x 10^3 CFU/mL, 37°C, 24 h, absorbance 590 nm, at least triplicate
Source text: as §1, §2, §3, §4

B. subtilis = type: cell-based; details: broth microdilution, Mueller-Hinton broth, approximately 10^5 CFU/mL, 37°C, 24 h, absorbance 590 nm, at least triplicate
Method: as §2, §3, §4

B. cereus = type: cell-based; details: broth microdilution, Mueller-Hinton broth, approximately 10^5 CFU/mL, 37°C, 24 h, absorbance 590 nm, at least triplicate
Method: as §2, §3, §4

[10] = Circular dichroism, alpha-helical content; type: physicochemical; details: CD, mean residue ellipticity at 222 nm (Eq 1), peptide 0.4 mg/ml in 30 mM SDS, room temperature
Method: Circullar dichroism spectra of analyzed compounds were recorded on a Jasco J-815 spectropolarimeter using a quartz cell of 1 mm path length between 195–260 nm at room temperature. Peptides at concentration of 0.4 mg/ml were dissolved in water or 30 mM SDS solution. SDS micelle system was used as the simplified model of negatively charged lipid membrane. On the basis of the obtained results the alpha-helical content was determined from the mean residue ellipticities at 222 nm according to Eq 1: %Helix=([θ]obs/([θ]helixx(1−2.57/l))x100, (1) where [θ] obs is the experimentally observed mean-residue ellipticity at 222 nm, [θ]helix is the theoretical ellipticity of peptide of infinite length with a 100% helix population, taken as -39 500 deg·cm^2/dmol, and l is the number of peptide bonds.
Circular dichroism method was applied to obtain a basic information about the secondary structure of the synthesized compounds (with the exception of CAR, CAR3, DAL, CTEN2) in two chemical environments, water and 30 mM SDS. As expected, all the tested compounds in water adopted a random-coil structure, while in the presence of 30 mM SDS most of them formed α-helices with characteristic negative minima around 208 and 220 nm. […] The examples of CD spectra for selected peptides could be seen in supporting information (Figure A in S1 File). On the basis of the experimentally obtained values of the mean residue ellipticities of peptides at 222 nm their alpha-helical content was calculated according to the Eq 1 (Table 1).

Row | Substance | MIC C. albicans [1] [µg/mL] | MIC C.tropicalis [2] [µg/mL] | MIC P. aeruginosa [3] [µg/mL] | MIC E.coli [4] [µg/mL] | MIC C.glabrata [5] [µg/mL] | MIC C. parapsilosis [6] [µg/mL] | MIC S. epidermidis [7] [µg/mL] | MIC S.aureus [8] [µg/mL] | MIC C.krusei [9] [µg/mL] | MIC B. subtilis (B. subtilis) [µg/mL] | MIC B. cereus (B. cereus) [µg/mL] | α-helicity [10] [%]
1 | YAGFLR-PEG-IKKILSKIKKLLK-NH2 [DAL-PEG-LK6, conjugate of dalargin and LK6 joined by PEG-linker] | 25 | 3.9 | 25 | 25 | >125 | 2.0 | 7.8 | 25 | 7.8 | 7.8 | 12.5 | 25
2 | YAGFLR-PEG-IKKILSKIKKLL-NH2 [DAL-PEG-DK5, conjugate of dalargin and DK5 joined by PEG-linker] | 25 | <2 | 25 | 25 | 125 | 2.0 | 7.8 | 50 | 3.9 | 2.0 | 25 | 35
3 | IKKILSKIKKLL-NH2 [DK5, Lys-rich derivative of amphibian AMP temporin-1CEb, …-NH2, reference compound] | 31.3 | < 2 | 50 | >125 | 62.5 | 31.3 | 7.8 | >125 | 7.8 | 15.6 | >125 | 29
